# From patent publication US8871934B2, “Fluorene compound and pharmaceutical use thereof” (Japan Tobacco Inc., priority 2008, dated 2014)
# Where two headings read alike, the source gives them in different places.
# Biological target: human PDHK2 (hPDHK2) (Homo sapiens (Human), UniProt Q15119)
# Test: Inhibitory action of PDHK activity in vitro (kinase reaction, residual PDH activity measured)
# Assay type: biochemical
# [1] = PDHK inhibitory activity, class symbol of IC50
# [2] = read-out: PDHK inhibitory activity IC50
# [3] = PDHK inhibitory activity IC50 (μmol/L)
# [4] = PDHK inhibitory activity (class symbol)
SMILES,IC50 [1] [nM],IC50 [2] [nM],other results
OC1(C(F)(F)F)c2ccccc2-c2ccc(Nc3ccccc3)cc21 (stereo not drawn) [compound 166],> 1000,5900,
CNC(=O)c1ccc2c(c1)-c1ccccc1C2(O)C(F)(F)F (stereo not drawn) [compound 43],> 1000,3920,
OCC1(n2cc(-c3cc(F)cc4c3-c3ccccc3[C@]4(O)C(F)(F)F)cn2)CCCC1 (stereo in doubt) [compound 548],< 100,,IC50 [3]: 16 nM
COc1cc(-c2cnn(C)c2)c2c(c1)C(O)(C(F)(F)F)c1ccccc1-2 (stereo not drawn) [compound 463],< 100,47,
"Cc1cc(-c2cnn(CCCc3nn[nH]n3)c2)c2c(c1)C(O)(C(F)(F)F)c1ccccc1-2 (single isomer, unassigned) [compound 691]",,30,IC50 [4]: < 100 nM
Cc1cc(Cl)c2c(c1)C(O)(C(F)(F)F)c1ccccc1-2 (stereo not drawn) [compound 519],100 to 1000,418,
O=C(c1cc(-c2cccnc2)c2c(c1)C(O)(C(F)(F)F)c1ccccc1-2)N1CCC1 (stereo not drawn) [compound 242],< 100,86,
CNc1cccc2c1-c1ccccc1C2(O)C(F)(F)F (stereo not drawn) [compound 85],> 1000,23100,
Cc1ccc(-c2cccc3c2-c2ccccc2C3(O)C(F)(F)F)cn1 (stereo not drawn) [compound 273],100 to 1000,396,
CNC(=O)C1CN(C(=O)c2ccc3c(c2)C(O)(C(F)(F)F)c2ccccc2-3)C1 (stereo not drawn) [compound 124],100 to 1000,736,
OC1(C(F)(F)F)c2ccccc2-c2ccc(-c3ccc(Cl)cc3)cc21 (stereo not drawn) [compound 179],> 1000,1340,
Cn1cc(-c2cc(OCC(=O)N3CCC3)cc3c2-c2ccccc2C3(O)C(F)(F)F)cn1 (stereo not drawn) [compound 441],< 100,36,
CC(C)c1ccc2c(c1)C(O)(C(F)(F)F)c1ccccc1-2 (stereo not drawn) [compound 71],> 1000,10200,
OCc1ccc2c(c1)C(O)(C(F)(F)F)c1ccccc1-2 (stereo not drawn) [compound 69],> 1000,16000,
OC1(C(F)(F)F)c2ccccc2-c2ccc(OC3CCC3)cc21 (stereo not drawn) [compound 128],> 1000,2400,
Cn1cc(-c2cc(CO)cc3c2-c2ccccc2C3(O)C(F)(F)F)cn1 (stereo not drawn) [compound 557],< 100,77,
NC(=O)CCn1cc(-c2ccc3c(c2)C(O)(C(F)(F)F)c2cccc(CO)c2-3)cn1 (stereo not drawn) [compound 601],,> 1000,IC50 (read-out: PDHK inhibitory activity (class symbol)): > 1000 nM
OC1(C(F)(F)F)c2ccccc2-c2ccc(Br)cc21 (stereo not drawn) [compound 7],> 1000,1440,
O=C(O)Cn1cc(-c2cc(F)cc3c2-c2ccccc2[C@]3(O)C(F)(F)F)cn1 (stereo in doubt) [compound 551],100 to 1000,,IC50 [3]: 109 nM
"O=C(O)CCCOc1cc(-c2cccnc2)c2c(c1)C(O)(C(F)(F)F)c1ccccc1-2 (single isomer, unassigned) [compound 561]",< 100,50,
O=C(NCCCO)c1ccc2c(c1)C(O)(C(F)(F)F)c1ccccc1-2 (stereo not drawn) [compound 311],> 1000,7150,
O=C(c1cc(CO)c2c(c1)C(O)(C(F)(F)F)c1ccccc1-2)N1CC(O)C1 (stereo not drawn) [compound 644],,130,IC50 [4]: 100 to 1000 nM

SMILES,IC50 [1] [nM],IC50 [2] [nM],other results
Cn1cc(-c2cc(C(=O)N3CCC[C@H]3CO)cc3c2-c2ccccc2C3(O)C(F)(F)F)cn1 (stereo partly drawn) [compound 393],100 to 1000,176,
O=C(c1ccc2c(c1)C(O)(C(F)(F)F)c1ccccc1-2)N1CCC(CO)C1 (stereo not drawn) [compound 225],100 to 1000,619,
CCOC(=O)c1ccccc1-c1ccc2c(c1)C(O)(C(F)(F)F)c1ccccc1-2 (stereo not drawn) [compound 173],> 1000,> 10000,
Oc1ccc(-c2ccc3c(c2)C(O)(C(F)(F)F)c2ccccc2-3)cc1 (stereo not drawn) [compound 205],100 to 1000,707,
CCN(C)C(=O)c1ccc2c(c1)C(O)(C(F)(F)F)c1ccccc1-2 (stereo not drawn) [compound 51],> 1000,2590,
CNC(=O)CCCOc1ccc2c(c1)C(O)(C(F)(F)F)c1ccccc1-2 (stereo not drawn) [compound 281],> 1000,1000,
O=C1CC[C@H](COc2ccc3c(c2)C(O)(C(F)(F)F)c2ccccc2-3)N1 (stereo partly drawn) [compound 445],100 to 1000,605,
OC1(C(F)(F)F)c2ccccc2-c2c(C3CC3)cccc21 (stereo not drawn) [compound 268],> 1000,> 10000,
"OCc1cc(-c2cnn(CC3CCCCC3)c2)cc2c1-c1ccccc1C2(O)C(F)(F)F (single isomer, unassigned) [compound 668]",,17,IC50 [4]: < 100 nM
Cn1cc(-c2cc(Cl)cc3c2-c2ccccc2C3(O)C(F)(F)F)cn1 (stereo not drawn) [compound 286],< 100,17,
CN(CCOc1cc(Cl)c2c(c1)C(O)(C(F)(F)F)c1ccccc1-2)C(=O)CO (stereo not drawn) [compound 409],< 100,67,
COC(=O)C1CCCN1C(=O)c1ccc2c(c1)C(O)(C(F)(F)F)c1ccccc1-2 (stereo not drawn) [compound 167],> 1000,1950,
Cc1cc(C(=O)N2CCC2)cc2c1-c1ccccc1C2(O)C(F)(F)F (stereo not drawn) [compound 91],< 100,72,
"CCn1cc(-c2cc(OCCCC(=O)O)cc3c2-c2ccccc2C3(O)C(F)(F)F)cn1 (single isomer, unassigned) [compound 554]",< 100,20,
CC(=O)N(C)Cc1ccc2c(c1)C(O)(C(F)(F)F)c1ccccc1-2 (stereo not drawn) [compound 418],> 1000,6060,
O=C(COc1ccc2c(c1)C(O)(C(F)(F)F)c1ccccc1-2)N1CCC[C@H]1CO (stereo partly drawn) [compound 383],> 1000,1220,
CCOC(=O)c1ccc(-c2ccc3c(c2)C(O)(C(F)(F)F)c2ccccc2-3)cc1 (stereo not drawn) [compound 175],100 to 1000,517,
CC(=O)NCc1ccc2c(c1)C(O)(C(F)(F)F)c1ccccc1-2 (stereo not drawn) [compound 415],> 1000,9190,
O=C(COc1ccc2c(c1)C(O)(C(F)(F)F)c1ccccc1-2)N1CCOCC1 (stereo not drawn) [compound 362],> 1000,1080,
Nc1cccc2c1-c1ccccc1C2(O)C(F)(F)F (stereo not drawn) [compound 20],> 1000,3500,
CN(C)C(=O)C1CCN(C(=O)c2ccc3c(c2)C(O)(C(F)(F)F)c2ccccc2-3)C1 (stereo not drawn) [compound 229],100 to 1000,552,
CC(=O)N(C)CCn1cc(-c2cccc3c2-c2ccccc2C3(O)C(F)(F)F)cn1 (stereo not drawn) [compound 535],100 to 1000,197,

SMILES,IC50 [1] [nM],IC50 [2] [nM],other results
OC1(C(F)(F)F)c2ccccc2-c2cc(F)ccc21 (stereo not drawn) [compound 12],> 1000,5500,
COC(=O)c1cc(C(=O)OC)c2c(c1)C(O)(C(F)(F)F)c1ccccc1-2 (stereo not drawn) [compound 50],100 to 1000,100,
CC(=O)c1ccc2c(c1)C(O)(C(F)(F)F)c1ccccc1-2 (stereo not drawn) [compound 76],> 1000,1750,
O=C(O)CCn1cc(-c2cccc3c2-c2ccccc2C3(O)C(F)(F)F)cn1 (stereo not drawn) [compound 485],100 to 1000,117,
COC(=O)C1CCN(c2ccc3c(c2)C(O)(C(F)(F)F)c2ccccc2-3)CC1 (stereo not drawn) [compound 218],> 1000,1840,
CCCCOc1ccc2c(c1)C(O)(C(F)(F)F)c1ccccc1-2 (stereo not drawn) [compound 249],100 to 1000,719,
O=C1CCCN1CCCc1cc(CO)c2c(c1)C(O)(C(F)(F)F)c1ccccc1-2 (stereo not drawn) [compound 656],,172,IC50 [4]: 100 to 1000 nM
Cn1cc(-c2cc(C(=O)N3CC(OCCO)C3)cc3c2-c2ccccc2C3(O)C(F)(F)F)cn1 (stereo not drawn) [compound 375],< 100,50,
"NC(=O)c1cc(-c2cnn(CC3CCCCC3)c2)cc2c1-c1ccccc1C2(O)C(F)(F)F (single isomer, unassigned) [compound 667, 2-(1-cyclohexylmethyl-1H-pyrazol-4-yl)-9-hydroxy-9-trifluoromethyl-9H-fluorene-4-carboxylic acid amide]",,15,IC50 [4]: < 100 nM
Cn1cc(-c2cc(C(=O)O)cc3c2-c2ccccc2C3(O)C(F)(F)F)cn1 (stereo not drawn) [compound 344],,> 1000,"IC50 (class symbol of IC50, read-out: PDHK inhibitory activity): > 1000 nM"
CNC(=O)Cn1cc(-c2cc(C)cc3c2-c2ccccc2C3(O)C(F)(F)F)cn1 (stereo not drawn) [compound 512],< 100,38,
CC(=O)Nc1ccc2c(c1)-c1ccccc1C2(O)C(F)(F)F (stereo not drawn) [compound 28],> 1000,2820,
Nc1ccc(-c2ccc3c(c2)C(O)(C(F)(F)F)c2ccccc2-3)cc1 (stereo not drawn) [compound 193],100 to 1000,560,
OC1(C(F)(F)F)c2ccccc2-c2c(-c3cccnc3)cccc21 (stereo not drawn) [compound 146],100 to 1000,213,
NC(=O)CCCOc1cc(Cl)c2c(c1)C(O)(C(F)(F)F)c1ccccc1-2 (stereo not drawn) [compound 410],100 to 1000,154,
NC(=O)Cn1cc(-c2cc(OCCC34CC5CC(CC(C5)C3)C4)cc3c2-c2ccccc2C3(O)C(F)(F)F)cn1 (stereo not drawn) [compound 508],< 100,48,
CN1C(=O)CCC1COc1ccc2c(c1)C(O)(C(F)(F)F)c1ccccc1-2 (stereo not drawn) [compound 420],100 to 1000,225,
O=C(O)C1CCN(C(=O)c2ccc3c(c2)C(O)(C(F)(F)F)c2ccccc2-3)C1 (stereo not drawn) [compound 217],> 1000,5330,
CC(=O)N(C)CCOc1cc(-c2cncnc2)c2c(c1)C(O)(C(F)(F)F)c1ccccc1-2 (stereo not drawn) [compound 422],< 100,23,
COC(=O)Cc1ccc2c(c1)C(O)(C(F)(F)F)c1ccccc1-2 (stereo not drawn) [compound 353],> 1000,7400,
Cc1noc(-c2ccc3c(c2)C(O)(C(F)(F)F)c2ccccc2-3)n1 (stereo not drawn) [compound 247],100 to 1000,547,
Cn1cc(-c2cc(O)cc3c2-c2ccccc2C3(O)C(F)(F)F)cn1 (stereo not drawn) [compound 564],100 to 1000,105,
